Test results from patent US20250034182A1, “PHOSPHOLIPID COMPOUNDS AND METHODS OF MAKING AND USING THE SAME” (priority 2021, published 2025).

Tests used:
Type in all cases: cell-based
[1] = test system: Recombinant Respiratory Syncytial virus strain A2 containing the firefly luciferase reporter (RSV-Fluc) in NHBE cells; assay: RSV NHBE FLuc EC50 (Example I); settings: human respiratory syncytial virus, 72 h, read-out: RSV NHBE FLuc EC50 (nM) (per Ex. I)
Description: Normal human bronchial epithelial (NHBE) cells are purchased from Lonza (Walkersville, MD Cat #CC-2540) and maintained in Bronchial Epithelial Cell Growth Medium (BEGM) (Lonza, Walkersville, MD, Cat #CC-3170) with all provided supplements in the BulletKit. Cells are passaged 2-3 times per week to maintain sub-confluent densities and are used for experiments at passages 2-4.
Recombinant Respiratory Syncytial virus strain A2 containing the firefly luciferase reporter between the P and M genes (RSV-Fluc, 6.3×10^6 TCID50/mL) is purchased from Viratree (Durham, NC, Cat #R^145).
NHBE cells (5×10^3/well) are seeded in 100 μL white wall/clear bottom 96-well plates (Corning) with culture medium and are incubated for 24 hours at 37° C. with 5% CO2. On the following day, three-fold serial dilutions of compounds prepared in DMSO are added to the wells using the HP D300e digital dispenser with normalization to the highest concentration of DMSO in all wells. The cells are then infected with RSV-Fluc diluted with BEGM media at an MOI of 0.1 for a final volume of 200 μL media/well. Uninfected and untreated wells are included as controls to determine compound efficacy against RSV-Fluc. Following incubation with compound and virus for three days at 37° C. with 5% CO2, 100 μL of culture supernatant is removed from each well and replaced with 100 μL of ONE-Glo luciferase reagent (Promega, Madison, WI, Cat #E6110). The plates are gently mixed by rocking for 10 minutes at 21° C. and luminescence signal is measured using an Envision plate reader (PerkinElmer). Values are normalized to the uninfected and infected DMSO controls (0% and 100% infection, respectively). Non-linear regression analysis is applied to determine the compound concentration at which 50% luminescence signal is reduced (EC50) using the XLfit4 add-in for MICROSOFT®EXCEL®. All experiments are performed in duplicate with two technical repeats each.

[2] = test system: Respiratory syncytial virus recombinant with luciferase (RSV-Luc5) in NHBE cells; assay: NHBE RSV-Luc5 384-well assay (EC50 RSVFLUC NHBE-384, Example U); settings: human respiratory syncytial virus, 72 h, read-out: RSV FLuc NHBE 384 EC50 (v2) (nM) (per Ex. U)
Description: Normal Human Bronchial Epithelial (NHBE) cells were purchased from Lonza (Walkersville, MD Cat #CC2540) and maintained in BEGM Bronchial Epithelial Cell (Growth Medium BulletKit (Lonza CC-3170).
Cells were thawed, expanded, and were used for experiments at passage 2. Respiratory syncytial virus recombinant with luciferase (RSV-Luc5) (≥1×10^7 Infectious Units/ml (IU/ml) determined by TCID50) was purchased from Microbiologics (Saint Cloud, MN). Viral replication was determined in NHBE cells in the following manner.
(§1) Compounds are prepared in 100% DMSO in 384-well polypropylene plates (Greiner, Monroe, NC, Cat #784201) with 8 compounds per plate in grouped replicates of 4 at 10 serially diluted concentrations (1:3). The serially diluted compounds were transferred to low dead volume Echo plates (Labcyte, Sunnyvale, CA, Cat #LP-0200).
The test compounds were spotted to 384-well assay plates (Greiner, Monroe, NC, Cat #781091) at 200 nL per well. NHBE cells were harvested and suspended in BEGM Bronchial Epithelial Cell Growth Medium BulletKit and seeded to the pre-spotted assay plates at 5,000 cells per well in 30 μL. RSV-Luc5 virus was diluted in BEGM Bronchial Epithelial Cell Growth Medium BulletKit at 500,000 Infectious Units (IU) per mL and 10 μL per well was added to the assay plates containing cells and compounds, for an MOI of 1. The assay plates were incubated for 3 days at 37° C. and 5% CO2. At the end of incubation, One-Glo reagent (Promega, Madison, WI, Cat #E6120) was prepared. The assay plates and One-Glo reagent were equilibrated to room temperature for at least 15 minutes. 40 μL per well of One-Glo reagent was added and the plates were incubated at room temperature for 15 minutes before reading the luminescence signal on an EnVision multimode plate reader (Perkin Elmer, Waltham, MA). Remdesivir was used as positive control and DMSO was used as negative control. Values were normalized to the positive and negative controls (as 0% and 100% replication, respectively) and data was fitted using non-linear regression analysis by Gilead's dose response tool. The EC50 value for each compound was defined as the concentration reducing the viral replication by 50%.

[3] = RSV NHBE CC50 384 V2 (per Ex. U); settings: human
[4] = test system: Respiratory syncytial virus recombinant with luciferase (RSV-Luc5) in HEp-2 cells; assay: HEp-2 RSV-Luc5 384-well assay (EC50 RSVFLUC Hep2-384 v2, Example V); settings: human respiratory syncytial virus, HEp-2, 72 h, read-out: RSV Hep-2 FLuc EC50 (v2) (nM) (per Ex. V)
Description: HEp-2 cell line was purchased from ATCC (Manassas, VA Cat #CCL-23) and maintained in Dulbecco's […] (DMEM) (Corning, New York, NY, Cat #15-018CM) supplemented with 10% fetal bovine serum (FBS) (Hyclone, Logan, UT, Cat #SH30071-03) and 1× Penicillin-Streptonycin-L-Glutamine (Corning, New York, NY, Cat #30-009-CI). Cells were passaged 2 times per week to maintain sub-confluent densities and were used for experiments at passage 5-20. Respiratory syncytial virus recombinant with luciferase (RSV-Luc5) (≥1×107 TCID50/ml) was purchased from Microbiologics (Saint Cloud, MN). Viral replication was determined in HEp-2 cells in the following manner.
as §1
The test compounds were spotted to 384-well assay plates (Greiner, Monroe, NC, Cat #781091) at 200 nL per well. HEp-2 cells were harvested and suspended in DMEM (supplemented with 10% FBS and 1× Penicillin-Streptomycin-L-Glutamine) and seeded to the pre-spotted assay plates at 4,000 cells per well in 30 μL. RSV-Luc5 viruses were diluted in DMEM (supplemented with 10% FBS and 1× Penicillin-Streptomycin-L-Glucamine) at 200,000 Infectious Units (IU) per mL and 10 μL per well was added to the assay plates containing cells and compounds, for an MOI=0.5. The assay plates were incubated for 3 days at 37° C. and 5% CO2. At the end of incubation, One-Glo reagent (Promega, Madison, WI, Cat #E6120) was prepared. The assay plates and One-Glo reagent were equilibrated to room temperature for at least 15 minutes. 40 μL per well of One-Glo reagent was added and the plates were incubated at room temp for 15 minutes before reading the luminescence signal on an EnVision multimode plate reader (Perkin Elmer, Waltham, MA). Remdesivir was used as positive control and DMSO was used as negative control. Values were normalized to the positive and negative controls (as 0% and 100% replication, respectively) and data was fitted using non-linear regression analysis by Gilead's dose response tool. The EC50 value for each compound was then determined as the concentration reducing the viral replication by 50%.

[5] = test system: Human Rhinovirus 14 (HRV14) in H1-HeLa cells; assay: H1-HeLa HRV-CTG EC50, HRV14 (Example Z); settings: Rhinovirus B, HRV14, 96 h, MOI 1.0, 4 days, Celltiter-Glo, read-out: HRV14 HELA EC50 (nM) (per Ex. Z)
Description: (§2) H1-Hela cell line (ATCC, Manassas, VA, Cat #CRL-1958) was maintained in Dulbecco's […] (DMEM) (Corning, New York, NY, Cat #15-018CM) supplemented with 10% fetal bovine serum (FBS) (Hyclone, Logan, UT, Cat #SH30071-03), and 1× Penicillin-Streptomycin-L-Glutamine (Coming, New York, NY, Cat #30-009-C1). Cells were passaged 2 times per week to maintain sub-confluent densities and were used for experiments at passage 5-30. The Human Rhinovirus 1B (HRV1B) (ATCC, Manassas, VA, Cat #VR-1645), Human Rhinovirus 14 (HRV14) (ATCC, Manassas, VA, Cat #VR-284), and Human Rhinovirus 16 (HRV16) (ATCC, Manassas, VA, Cat #BR-283) was obtained through ATCC. Viral infection was monitored by determining viability of H1-HeLa cells as described below.
as §1, with “Test molecules” for “Compounds”
(§3) The test compounds were spotted to 384-well assay plates (Greiner, Monroe, NC, Cat #781091) at 200 nL per well using an Echo acoustic dispenser (Labcyte, Sunnyvale, CA). H1-HeLa cells were harvested and suspended in DMEM (supplemented with 2% FBS and 1× Penicillin-Streptomycin-L-Glutamine) and seeded to the pre-spotted assay plates at 5,000 cells per well in 30 μL. HRV1B, HRV14, and HRV16 was diluted in DMEM (supplemented with 2% FBS and 1× Penicillin-Streptomycin-L-Glutamine) at 97.1 million Infectious Units (IU) per mL, 151 million IU per mL and 221 million IU per mL respectively. 10 μL of virus per well was added to the assay plates containing cells and compounds, for an MOI of 0.5, 1.0, and 0.25 respectively. The assay plates were incubated for 4 days at 37° C. and 5% CO2. At the end of incubation, Celltiter-Glo (Promega, Madison, WI, Cat #G7573) was prepared. The assay plates and Celltiter-Glo reagent were equilibrated to room temperature for at least 15 minutes. 40 μL per well of Celltiter-Glo reagent was added and the plates were incubated at room temperature for 15 minutes before reading the luminescence signal on an EnVision multimode plate reader (Perkin Elmer, Waltham, MA). Rupintrivir was used as positive control and DMSO was used as negative control. Values were normalized to the positive and negative controls (as 0% and 100% replication, respectively) and data was fitted using non-linear regression analysis by Gilead's dose response tool. The EC50 value for each compound was defined as the concentration reducing viral replication by 50%.

[6] = test system: Human Rhinovirus 16 (HRV16) in H1-HeLa cells; assay: H1-HeLa HRV-CTG EC50, HRV16 (Example Z); settings: Rhinovirus A, HRV16, 96 h, MOI 0.25, 4 days, Celltiter-Glo, read-out: HRV 16 HELA EC50 (nM) (per Ex. Z)
Description: as §2
as §1, with “Test molecules” for “Compounds”
as §3

[7] = test system: Human Rhinovirus 1B (HRV1B) in H1-HeLa cells; assay: H1-HeLa HRV-CTG EC50, HRV1B (Example Z); settings: Rhinovirus A, 96 h, MOI 0.5, 4 days, Celltiter-Glo, read-out: HRV 1B HELA EC50 (nM) (per Ex. Z)
Description: as §2
as §1, with “Test molecules” for “Compounds”
as §3

[8] = RSV HEP2-CC50-384-V2 (per Ex. V); settings: human

SMILES: CCCCCCCCCCCCCCCCCCC[C@@H](COP(=O)(O)OC[C@@]1(C#N)O[C@@H](c2ccc3c(N)ncnn23)[C@H](O)[C@@H]1O)OCc1cc(F)cc(C#N)c1 [Compound 31, ((2R,3S,4R)-5-(4-aminopyrrolo[2,1-f][1,2,4]triazin-7-yl)-2-cyano-3,4-dihydroxytetrahydrofuran-2-yl)methyl ((S)-2-((3-cyano-5-fluorobenzyl)oxy)henicosyl) hydrogen phosphate]
- EC50 [1]: 229 nM
- EC50 [2]: 134 nM
- CC50 at 3 days [3]: 1900 nM

SMILES: CCCCCCCCCCCCCCCOC[C@H](COP(=O)(O)OC[C@@]1(C#N)O[C@@H](c2ccc3c(N)ncnn23)[C@H](O)[C@@H]1O)OCc1cc(F)cc(C#N)c1 [Compound 99, ((2R,3S,4R,5S)-5-(4-aminopyrrolo[2,1-f][1,2,4]triazin-7-yl)-2-cyano-3,4-dihydroxytetrahydrofuran-2-yl)methyl ((R)-2-((3-cyano-5-fluorobenzyl)oxy)-3-(pentadecyloxy)propyl) hydrogen phosphate]
- EC50 [4]: 166 nM
- EC50 [2]: 47 nM
- EC50 [5]: 37 nM
- EC50 [6]: 33 nM
- EC50 [7]: 19 nM
- CC50 at 3 days [3]: 1140 nM
- CC50 at 3 days [8]: 42300 nM

SMILES: CCCCCCCCCCCCCCCCOC[C@@H](COP(=O)(O)OC[C@@]1(C#N)O[C@@H](c2ccc3c(N)ncnn23)[C@H](O)[C@@H]1O)OCc1ccccc1 [Compound 92, ((2R,3S,4R,5S)-5-(4-aminopyrrolo[2,1-f][1,2,4]triazin-7-yl)-2-cyano-3,4-dihydroxytetrahydrofuran-2-yl)methyl ((S)-2-(benzyloxy)-3-(hexadecyloxy)propyl) hydrogen phosphate]
- EC50 [4]: 194 nM
- EC50 [2]: 47 nM
- CC50 at 3 days [3]: 9560 nM
- CC50 at 3 days [8]: > 50000 nM

SMILES: CCCCCCCCCCCCCCCCCCC[C@H](COP(=O)(O)OC[C@@]1(C#N)O[C@@H](c2ccc3c(N)ncnn23)[C@H](O)[C@@H]1O)Oc1ccc(C#N)c(F)c1 [Compound 85, ((2R,3S,4R,5S)-5-(4-aminopyrrolo[2,1-f][1,2,4]triazin-7-yl)-2-cyano-3,4-dihydroxytetrahydrofuran-2-yl)methyl ((R)-2-(4-cyano-3-fluorophenoxy)henicosyl) hydrogen phosphate]
- EC50 [4]: 93 nM
- EC50 [2]: 11 nM
- CC50 at 3 days [3]: 1440 nM
- CC50 at 3 days [8]: > 50000 nM
